Values quoted from earlier work in patent US6949636B2, “Intron/exon structure of the human and mouse β3-adrenergic receptor genes” (Centre National de la Recherche Scientifique, priority 1989, dated 2005).

Columns and labels:
β3-adrenergic receptor = β3-adrenergic receptor (Homo sapiens, UniProt P13945); settings: activity increases in the order salbutamol, BRL 28410, BRL 37344, (1)-isoproterenol; from earlier filings
[1] = biological target: mouse β3-adrenergic receptor (Mus musculus, UniProt P25962); settings: background statement, earlier filing / Nahmias et al.
Sequence of mouse β3-adrenergic receptor (P25962 1-388 limits assumed): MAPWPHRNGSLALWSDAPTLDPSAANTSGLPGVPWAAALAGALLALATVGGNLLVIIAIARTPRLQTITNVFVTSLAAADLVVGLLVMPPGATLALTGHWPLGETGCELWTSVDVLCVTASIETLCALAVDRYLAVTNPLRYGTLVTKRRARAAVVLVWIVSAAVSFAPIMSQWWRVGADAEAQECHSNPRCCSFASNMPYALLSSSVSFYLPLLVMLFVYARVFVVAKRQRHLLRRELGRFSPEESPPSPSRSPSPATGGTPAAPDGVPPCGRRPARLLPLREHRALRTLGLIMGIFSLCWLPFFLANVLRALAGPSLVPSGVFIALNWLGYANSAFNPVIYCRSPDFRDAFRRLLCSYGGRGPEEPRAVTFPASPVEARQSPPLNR

Sequence of β3-adrenergic receptor (P13945 1-402 limits assumed): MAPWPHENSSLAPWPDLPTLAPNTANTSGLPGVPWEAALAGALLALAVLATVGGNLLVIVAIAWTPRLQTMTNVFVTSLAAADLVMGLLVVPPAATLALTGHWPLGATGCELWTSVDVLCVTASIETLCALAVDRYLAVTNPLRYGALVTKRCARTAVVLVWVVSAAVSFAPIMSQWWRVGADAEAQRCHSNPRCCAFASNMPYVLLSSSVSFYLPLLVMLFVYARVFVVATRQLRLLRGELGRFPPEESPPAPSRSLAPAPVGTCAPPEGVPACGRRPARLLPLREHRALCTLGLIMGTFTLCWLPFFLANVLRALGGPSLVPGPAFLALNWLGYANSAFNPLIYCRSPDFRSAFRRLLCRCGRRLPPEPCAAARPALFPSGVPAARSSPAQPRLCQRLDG

| Structure (SMILES) | activating adenylate cyclase in the presence of an agonist (β3-adrenergic receptor) | activation of mouse β3-adrenergic receptor [1] |
| --- | --- | --- |
| C[C@H](Cc1ccc(C(=O)O)cc1)NC[C@H](O)c1ccccc1 [BRL 28410] | activating adenylate cyclase |  |
| CC(C)(C)NCC(O)COc1cccc2[nH]c(=O)[nH]c12 (centres unmarked) [CGP 12177A] |  | can be activated |
| C=CCOc1ccccc1OCC(O)CNC(C)C (centres unmarked) [oxprenolol] |  | can be activated |
| CC(C)NCC(O)COc1cccc2[nH]ccc12 (centres unmarked) [pindolol] |  | can be activated |
| CC(C)(C)NCC(O)c1ccc(O)c(CO)c1 (centres unmarked) [salbutamol] | activating adenylate cyclase |  |
